# ± gives the standard deviation of the averaged measurements.
# Tests used:
# SAPACITABINE [1] = compound: T1, CCCCCCCCCCCCCCCC(=O)Nc1ccn([C@@H]2O[C@H](CO)[C@@H](O)[C@@H]2C#N)c(=O)n1 [SAPACITABINE]; test: area under dose-response curve of surviving fraction (unscaled, Aref=0) (surviving fraction x log10(nM)); higher = more resistant; conditions: exposure time: 5 days; dose range 0.5-1000 nM
# Summary of the method: (§1)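 Three screens per tumour cell line were run in 384-well plates at eight inhibitor concentrations from 0.5 to 1000 nM over five days. Surviving fractions, from CellTiter-Glo luminescence normalised to DMSO-only wells, were fitted with 3-parameter logistic curves in the drc R package. The reported area under the curve is the unscaled activity area. It spans log10 dose, and Aref is 0.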
# [2] = compound: Cn1cc(C2=Nc3cc(NC(=O)C(N)C4CCCCC4)cc4c3C2=CNNC4=O)cn1; test: as above; conditions: exposure time: 5 days; dose range 0.5-1000 nM
# Summary of the method: as §1
# CANERTINIB [3] = compound: T2, C=CC(=O)Nc1cc2c(Nc3ccc(F)c(Cl)c3)ncnc2cc1OCCCN1CCOCC1 [CANERTINIB]; test: as above; conditions: exposure time: 5 days; dose range 0.5-1000 nM
# Summary of the method: as §1
# MDV3100 [4] = compound: T3, CNC(=O)c1ccc(N2C(=S)N(c3ccc(C#N)c(C(F)(F)F)c3)C(=O)C2(C)C)cc1F [MDV3100]; test: as above; conditions: exposure time: 5 days; dose range 0.5-1000 nM
# Summary of the method: as §1
# BI-2536 [5] = compound: T4, CC[C@@H]1C(=O)N(C)c2cnc(Nc3ccc(C(=O)NC4CCN(C)CC4)cc3OC)nc2N1C1CCCC1 [BI-2536]; test: as above; conditions: exposure time: 5 days; dose range 0.5-1000 nM
# Summary of the method: as §1
# TIOGUANINE [6] = compound: T5, Nc1nc2[nH]cnc2c(=S)[nH]1 [TIOGUANINE]; test: as above; conditions: exposure time: 5 days; dose range 0.5-1000 nM
# Summary of the method: as §1
# SNX-5422 [7] = compound: T6, CC1(C)CC(=O)c2c(C(F)(F)F)nn(-c3ccc(C(N)=O)c(N[C@H]4CC[C@H](OC(=O)CN)CC4)c3)c2C1 [SNX-5422]; test: as above; conditions: exposure time: 5 days; dose range 0.5-1000 nM
# Summary of the method: as §1
# AFATINIB = compound: CN(C)C/C=C/C(=O)Nc1cc2c(Nc3ccc(F)c(Cl)c3)ncnc2cc1O[C@H]1CCOC1 [AFATINIB]; test: surviving fraction relative to DMSO-only wells; higher = less growth inhibition; conditions: exposure time: 5 days
# Summary of the method: (§2)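 Viability was scored with CellTiter-Glo luminescence and normalised to the median of DMSO-only wells as surviving fraction. Beforehand, log-phase tumour cell lines were seeded at 250–500 cells per well in 384-well plates, allowed 24 hours, and exposed continuously for five days to inhibitors at 0.5, 1, 5, 10, 50, 100, 500 and 1000 nM. Only lines whose three screens gave replicate Pearson r >0.7 and median Z' >0.3 were kept.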
# SAPACITABINE [8] = compound: T1, SAPACITABINE; test: as above; conditions: exposure time: 5 days
# Summary of the method: as §2
# [9] = compound: Cn1cc(C2=Nc3cc(NC(=O)C(N)C4CCCCC4)cc4c3C2=CNNC4=O)cn1; test: as above; conditions: exposure time: 5 days
# Summary of the method: as §2
# CANERTINIB [10] = compound: T2, CANERTINIB; test: as above; conditions: exposure time: 5 days
# Summary of the method: as §2
# MDV3100 [11] = compound: T3, MDV3100; test: as above; conditions: exposure time: 5 days
# Summary of the method: as §2
# BI-2536 [12] = compound: T4, BI-2536; test: as above; conditions: exposure time: 5 days
# Summary of the method: as §2
# TIOGUANINE [13] = compound: T5, TIOGUANINE; test: as above; conditions: exposure time: 5 days
# Summary of the method: as §2
# SNX-5422 [14] = compound: T6, SNX-5422; test: as above; conditions: exposure time: 5 days
# Summary of the method: as §2
test system,measurement,setting,value
DU4475 BREAST,area under dose-response curve,SAPACITABINE [1],1.86
same,area under dose-response curve,[2],2.46
same,area under dose-response curve,CANERTINIB [3],2.65
same,area under dose-response curve,MDV3100 [4],3.04
same,area under dose-response curve,BI-2536 [5],1.14
same,area under dose-response curve,TIOGUANINE [6],2.55
same,area under dose-response curve,SNX-5422 [7],1.76
same,surviving fraction,AFATINIB; 0.5 nM,1.05 ± 0.26
same,surviving fraction,AFATINIB; 1 nM,1.08 ± 0.31
same,surviving fraction,AFATINIB; 5 nM,0.851 ± 0.034
same,surviving fraction,AFATINIB; 10 nM,1.11 ± 0.25
same,surviving fraction,AFATINIB; 50 nM,1.17 ± 0.15
same,surviving fraction,AFATINIB; 100 nM,0.997 ± 0.089
same,surviving fraction,AFATINIB; 500 nM,1.08 ± 0.25
same,surviving fraction,AFATINIB; 1000 nM,0.788 ± 0.042
same,surviving fraction,SAPACITABINE [8]; 0.5 nM,0.637 ± 0.062
same,surviving fraction,SAPACITABINE [8]; 1 nM,0.863 ± 0.13
same,surviving fraction,SAPACITABINE [8]; 5 nM,0.743 ± 0.051
same,surviving fraction,SAPACITABINE [8]; 10 nM,0.699 ± 0.12
same,surviving fraction,SAPACITABINE [8]; 50 nM,0.655 ± 0.077
same,surviving fraction,SAPACITABINE [8]; 100 nM,0.458 ± 0.049
same,surviving fraction,SAPACITABINE [8]; 500 nM,0.16 ± 0.033
same,surviving fraction,SAPACITABINE [8]; 1000 nM,0.0713 ± 0.018
same,surviving fraction,[9]; 0.5 nM,0.979 ± 0.32
same,surviving fraction,[9]; 1 nM,0.981 ± 0.17
same,surviving fraction,[9]; 5 nM,1.03 ± 0.2
same,surviving fraction,[9]; 10 nM,0.96 ± 0.19
same,surviving fraction,[9]; 50 nM,0.821 ± 0.25
same,surviving fraction,[9]; 100 nM,0.659 ± 0.19
same,surviving fraction,[9]; 500 nM,0.136 ± 0.026
same,surviving fraction,[9]; 1000 nM,0.0377 ± 0.0084
same,surviving fraction,CANERTINIB [10]; 0.5 nM,0.819 ± 0.11
same,surviving fraction,CANERTINIB [10]; 1 nM,0.797 ± 0.088
same,surviving fraction,CANERTINIB [10]; 5 nM,0.782 ± 0.099
same,surviving fraction,CANERTINIB [10]; 10 nM,0.742 ± 0.15
same,surviving fraction,CANERTINIB [10]; 50 nM,0.976 ± 0.12
same,surviving fraction,CANERTINIB [10]; 100 nM,0.919 ± 0.045
same,surviving fraction,CANERTINIB [10]; 500 nM,0.79 ± 0.18
same,surviving fraction,CANERTINIB [10]; 1000 nM,0.596 ± 0.13
same,surviving fraction,MDV3100 [11]; 0.5 nM,0.806 ± 0.11
same,surviving fraction,MDV3100 [11]; 1 nM,0.938 ± 0.086
same,surviving fraction,MDV3100 [11]; 5 nM,0.832 ± 0.098
same,surviving fraction,MDV3100 [11]; 10 nM,0.992 ± 0.052
same,surviving fraction,MDV3100 [11]; 50 nM,0.958 ± 0.074
same,surviving fraction,MDV3100 [11]; 100 nM,0.907 ± 0.089
same,surviving fraction,MDV3100 [11]; 500 nM,0.965 ± 0.11
same,surviving fraction,MDV3100 [11]; 1000 nM,0.933 ± 0.046
same,surviving fraction,BI-2536 [12]; 0.5 nM,0.997 ± 0.25
same,surviving fraction,BI-2536 [12]; 1 nM,1.04 ± 0.051
same,surviving fraction,BI-2536 [12]; 5 nM,0.536 ± 0.15
same,surviving fraction,BI-2536 [12]; 10 nM,0.233 ± 0.047
same,surviving fraction,BI-2536 [12]; 50 nM,0.0763 ± 0.027
same,surviving fraction,BI-2536 [12]; 100 nM,0.057 ± 0.015
same,surviving fraction,BI-2536 [12]; 500 nM,0.031 ± 0.0053
same,surviving fraction,BI-2536 [12]; 1000 nM,0.027 ± 0.002
same,surviving fraction,TIOGUANINE [13]; 0.5 nM,0.746 ± 0.054
same,surviving fraction,TIOGUANINE [13]; 1 nM,1 ± 0.31
same,surviving fraction,TIOGUANINE [13]; 5 nM,0.784 ± 0.2
same,surviving fraction,TIOGUANINE [13]; 10 nM,0.798 ± 0.17
same,surviving fraction,TIOGUANINE [13]; 50 nM,0.687 ± 0.23
same,surviving fraction,TIOGUANINE [13]; 100 nM,0.743 ± 0.24
same,surviving fraction,TIOGUANINE [13]; 500 nM,0.721 ± 0.4
same,surviving fraction,TIOGUANINE [13]; 1000 nM,0.704 ± 0.29
same,surviving fraction,SNX-5422 [14]; 0.5 nM,1.07 ± 0.29
same,surviving fraction,SNX-5422 [14]; 1 nM,0.979 ± 0.18
same,surviving fraction,SNX-5422 [14]; 5 nM,1.04 ± 0.17
same,surviving fraction,SNX-5422 [14]; 10 nM,1.06 ± 0.26
same,surviving fraction,SNX-5422 [14]; 50 nM,0.03 ± 0.013
same,surviving fraction,SNX-5422 [14]; 100 nM,0.0313 ± 0.0065
same,surviving fraction,SNX-5422 [14]; 500 nM,0.029 ± 0.0052
same,surviving fraction,SNX-5422 [14]; 1000 nM,0.0317 ± 0.0072

# From the supplement of paper PMC6045584
